This is an account of results in patent US20260034123A1 (Cedilla Therapeutics, Inc., priority 2022, published 2026).

Test [1] has as its system Kuramochi cells RB-WT. The test can be described thus: IncuCyte Kuramochi cell proliferation assay, RB-WT. Type of test: cell-based. The following applies: 72 hours, cell count. Put shortly: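 GI50 was derived by curve-fitting DMSO-normalized fold change in nuclear count between 0 and 72 h. Counts came from images of Kuramochi cells carrying mApple-H2B. Compounds were dosed over 10 points at 1/2-log spacing from a 20 µM top concentration.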

For test [2], the target named is CDK2/Cyclin E1 (Homo sapiens, UniProt P24941). The experiment in a line: Caliper LabChip EZ Reader mobility shift assay. Type of test: biochemical. The following applies: 2.5 nM CDK2/Cyclin E1(14-475), 100 μM ATP, 30 min preincubation; read-out: Caliper Assay (CDK2/CCNE1): IC50. As to the method:
Inhibition of CDK2/Cyclin E1 activity in the presence of compounds of the present disclosure was evaluated using a Caliper LabChip® EZ Reader mobility shift assay. In the assay, activated CDK2/Cyclin E1 catalyzes the phosphorylation of a fluorescently tagged peptide 5-FAM-QSPKKG-CONH2 (PerkinElmer, FL Peptide 18) which induces a difference in capillary electrophoresis mobility. The peptide substrate and product were measured, and the conversion ratio was used to determine the inhibition (as % activity and IC50 values) of CDK2/Cyclin E1. Reactions contained 50 mM HEPES pH 7.5, 10 mM MgCl2, 1 mM EDTA, 2 mM DTT, 0.01% Brij35, 0.5 mg/mL BSA, 0.1% DMSO, 2.5 nM CDK2/Cyclin E1(14-475), 100 μM ATP, and 1.5 μM fluorescent peptide substrate.
Dose titrations of inhibitors in 100% DMSO were combined with 3.25 nM CDK2/Cyclin E1(14-475) and 130 μM of ATP in reaction buffer. The mixtures were incubated for 30 minutes before the addition of fluorescent peptide substrate to initiate the kinase reaction. The final conditions were 2.5 nM CDK2/Cyclin E1(14-475), 100 μM ATP, and 1.5 μM fluorescent peptide. The reactions were stopped after 100 minutes with the addition of EDTA (6 mM final EDTA concentration). The stopped reactions were analyzed on a Caliper LabChip® EZ Reader 11. The conversion ratios were normalized to yield % activity, plotted against compound concentration, and fit to a four-parameter equation to determine the IC50 for each compound.

Structures are written as SMILES.

As for `CC1(C)C[C@@H]1C(=O)N1CC2(CN(C(=O)c3cnccn3)C[C@H]2COCc2cccc(-c3ccc(C(F)(F)F)cc3)n2)C1` [Compound I-18, ((S)-2-((S)-2,2-dimethylcyclopropane-1-carbonyl)-8-(((6-(4-(trifluoromethyl)phenyl)pyridin-2-yl)methoxy)methyl)-2,6-diazaspiro[3.4]octan-6-yl) (pyrazin-2-yl)methanone], the IC50 was over 10000 nM in test [1] and 10 to 100 nM in test [2].

Take `CC1(C)C[C@@H]1C(=O)N1CC2(CN(Cc3cnccn3)C[C@H]2COCc2cccc(-c3ccc(C(F)(F)F)cc3)n2)C1` [Compound I-19, ((S)-2,2-dimethylcyclopropyl)((S)-6-(pyrazin-2-ylmethyl)-8-(((6-(4-(trifluoromethyl)phenyl)pyridin-2-yl)methoxy)methyl)-2,6-diazaspiro[3.4]octan-2-yl) methanone]: the IC50 in test [1] and in test [2] was over 10000 nM each time.

As to `CC1(C)C[C@@H]1C(=O)N1CC2(CN(C(=O)c3cncs3)C[C@H]2COCc2cccc(-c3cccnc3)n2)C1` [Compound I-20, ((S)-8-(([2,3′-bipyridin]-6-ylmethoxy)methyl)-2-((S)-2,2-dimethylcyclopropane-1-carbonyl)-2,6-diazaspiro[3.4]octan-6-yl)(thiazol-5-yl)methanone], the IC50 in test [1] was over 10000 nM; in test [2] it was 100 to 1000 nM.

Take `CC1(C)C[C@@H]1C(=O)N1CC2(CN(C(=O)c3cncs3)C[C@H]2COCc2cccc(-c3ccc(C(F)(F)F)nc3)n2)C1` [Compound I-21, ((S)-2-((S)-2,2-dimethylcyclopropane-1-carbonyl)-8-(((6′-(trifluoromethyl)-[2,3′-bipyridin]-6-yl)methoxy)methyl)-2,6-diazaspiro[3.4]octan-6-yl)(thiazol-5-yl)methanone]: the IC50 is over 10000 nM in test [1] and 100 to 1000 nM in test [2].

As for `CC1(C)C[C@@H]1C(=O)N1CC2(CN(C(=O)c3cncs3)C[C@H]2COc2cccc3c(C4CCOCC4)cccc23)C1` [Compound I-22, ((S)-2-((S)-2,2-dimethylcyclopropane-1-carbonyl)-8-(((5-(tetrahydro-2H-pyran-4-yl)naphthalen-1-yl)oxy)methyl)-2,6-diazaspiro[3.4]octan-6-yl)(thiazol-5-yl)methanone], the IC50 in test [1] is over 10000 nM; in test [2], 100 to 1000 nM.

Turning to `CC1(C)C[C@@H]1C(=O)N1CC2(CN(C(=O)c3cncs3)C[C@H]2COc2cncc3c(C4CCOCC4)cccc23)C1` [Compound I-23, ((S)-2-((S)-2,2-dimethylcyclopropanecarbonyl)-8-(((8-(tetrahydro-2H-pyran-4-yl)isoquinolin-4-yl)oxy)methyl)-2,6-diazaspiro[3.4]octan-6-yl)(thiazol-5-yl)methanone], the IC50 in test [1] was over 10000 nM; in test [2] it was 1000 to 10000 nM.

In the case of `CC1(C)C[C@@H]1C(=O)N1CC2(CN(C(=O)c3cncs3)C[C@H]2COCc2cccc(C3CCC(OC(F)(F)F)CC3)n2)C1` (stereo partly drawn) [Compound I-24, ((S)-2-((S)-2,2-dimethylcyclopropane-1-carbonyl)-8-(((6-(4-(trifluoromethoxy)cyclohexyl)pyridin-2-yl)methoxy)methyl)-2,6-diazaspiro[3.4]octan-6-yl)(thiazol-5-yl) methanone], the IC50 in test [1] lay in the range of 5000 to 10000 nM; in test [2], 10 to 100 nM.

As for `CC1(C)C[C@@H]1C(=O)N1CC2(CN(C(=O)c3cncs3)C[C@H]2COc2nccc3c(C4CCOCC4)cccc23)C1` [Compound I-25, ((S)-2-((S)-2,2-dimethylcyclopropanecarbonyl)-8-(((5-(tetrahydro-2H-pyran-4-yl)isoquinolin-1-yl)oxy)methyl)-2,6-diazaspiro[3.4]octan-6-yl)(thiazol-5-yl)methanone], the IC50 was over 10000 nM in test [1] and 100 to 1000 nM in test [2].
